# T1: dopamine beta-hydroxylase (DBH), non-immobilized (Bos taurus, UniProt P15101)
# T1 construct: purchased
# T1 sequence (P15101 1-610): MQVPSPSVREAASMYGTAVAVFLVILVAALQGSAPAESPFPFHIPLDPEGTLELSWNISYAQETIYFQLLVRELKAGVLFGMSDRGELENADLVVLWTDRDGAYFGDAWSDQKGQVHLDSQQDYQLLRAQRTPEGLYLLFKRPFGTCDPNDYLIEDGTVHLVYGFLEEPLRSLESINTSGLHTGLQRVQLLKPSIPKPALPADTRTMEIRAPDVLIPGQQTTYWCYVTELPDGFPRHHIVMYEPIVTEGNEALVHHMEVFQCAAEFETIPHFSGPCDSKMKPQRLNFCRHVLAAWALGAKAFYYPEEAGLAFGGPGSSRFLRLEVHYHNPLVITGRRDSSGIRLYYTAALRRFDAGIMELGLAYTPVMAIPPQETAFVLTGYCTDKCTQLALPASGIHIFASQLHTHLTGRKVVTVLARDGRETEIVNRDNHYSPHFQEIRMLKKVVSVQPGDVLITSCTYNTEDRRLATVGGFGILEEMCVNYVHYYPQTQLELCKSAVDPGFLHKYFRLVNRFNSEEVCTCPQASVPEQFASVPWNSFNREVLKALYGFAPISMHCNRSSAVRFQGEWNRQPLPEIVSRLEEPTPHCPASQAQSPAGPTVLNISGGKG
# T2: dopamine beta-hydroxylase immobilized onto IAM (DBH-IAM) (Bos taurus, UniProt P15101)
# T2 construct: purchased
# T2 sequence (P15101 1-610): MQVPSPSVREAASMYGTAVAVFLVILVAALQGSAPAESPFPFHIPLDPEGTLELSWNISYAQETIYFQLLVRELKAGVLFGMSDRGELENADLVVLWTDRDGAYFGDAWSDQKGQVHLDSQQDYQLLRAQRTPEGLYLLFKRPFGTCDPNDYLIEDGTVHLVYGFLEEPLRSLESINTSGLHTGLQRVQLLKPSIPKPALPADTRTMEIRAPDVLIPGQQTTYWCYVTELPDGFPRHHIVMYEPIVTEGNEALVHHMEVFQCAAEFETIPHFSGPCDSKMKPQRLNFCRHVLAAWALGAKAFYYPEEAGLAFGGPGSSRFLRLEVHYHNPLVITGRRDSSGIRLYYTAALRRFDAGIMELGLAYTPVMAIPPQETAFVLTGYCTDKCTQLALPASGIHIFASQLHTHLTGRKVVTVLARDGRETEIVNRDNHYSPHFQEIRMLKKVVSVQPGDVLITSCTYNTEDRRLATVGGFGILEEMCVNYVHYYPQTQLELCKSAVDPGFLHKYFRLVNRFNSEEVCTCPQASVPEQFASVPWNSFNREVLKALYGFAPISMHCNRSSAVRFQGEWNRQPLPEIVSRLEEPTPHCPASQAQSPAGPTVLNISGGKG
# T3: DBH-Glut-P IMER (immobilized dopamine beta-hydroxylase) (Bos taurus, UniProt P15101)
# T3 construct: purchased
# T3 sequence (P15101 1-610): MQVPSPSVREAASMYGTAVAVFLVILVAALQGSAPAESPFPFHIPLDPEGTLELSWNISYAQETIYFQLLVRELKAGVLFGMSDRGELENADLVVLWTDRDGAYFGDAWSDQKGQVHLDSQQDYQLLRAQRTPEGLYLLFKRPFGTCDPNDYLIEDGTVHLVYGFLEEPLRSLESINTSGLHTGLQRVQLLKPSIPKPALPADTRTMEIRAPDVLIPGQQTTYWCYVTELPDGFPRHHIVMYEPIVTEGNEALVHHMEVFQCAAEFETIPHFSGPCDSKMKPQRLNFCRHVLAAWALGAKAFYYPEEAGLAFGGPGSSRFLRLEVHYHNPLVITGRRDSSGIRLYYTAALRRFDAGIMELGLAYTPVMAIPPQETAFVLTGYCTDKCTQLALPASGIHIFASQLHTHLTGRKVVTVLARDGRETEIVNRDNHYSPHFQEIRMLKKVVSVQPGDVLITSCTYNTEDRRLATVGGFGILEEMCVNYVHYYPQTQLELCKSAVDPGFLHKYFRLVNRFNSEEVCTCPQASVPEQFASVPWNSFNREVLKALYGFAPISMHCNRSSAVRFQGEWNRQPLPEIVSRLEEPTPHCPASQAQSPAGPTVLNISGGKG
# Columns and labels:
# [1] = target: T1, dopamine beta-hydroxylase (DBH), non-immobilized; assay: Non-immobilized DBH activity assay, batch incubation with HPLC-fluorescence analysis; assay type: biochemical, bovine
# Procedure: The solutes were quantitated using fluorescence detection with excitation at λ=265 nm and no cut-off filter for emission. A flow rate of 1 ml/min and ambient temperature were used throughout the study.
# Enzymatic conversions utilizing DBH require cupric sulphate, catalase, ascorbic acid and sodium fumarate. An off-line extraction method utilizing solid phase extraction cartridges containing a phenylboronic acid stationary phase was developed. The procedure consisted of the following: 1-ml cartridges were conditioned with 2 ml of methanol followed by 2 ml of sodium phosphate buffer (0.1M, pH 8.4). One ml of reaction mixture was added, the cartridge was then washed with 1 ml sodium phosphate buffer (0.1M, pH 8.4) and the substrate and product were eluted using 1 ml of 0.1N HCl. The eluate was directly injected onto the HPLC system.
# (§1) The enzyme was assayed as follows: four different solutions were prepared A, B, C and D (final concentration). (A) 500 μL of enzyme solution (10 μg/ml); B: 275 μL sodium acetate buffer (10 mM, pH 5.5), 50 μL cupric sulphate (5 μM); C: 25 μL catalase (5 μg/ml), 50 μL ascorbic acid (10 mM), 50 μl sodium fumarate (10 mM); D: 50 μl substrate (5 mM). Solution B was added to solution A, the resulting solution was mixed for 1 min. Solution C was added and the resulting solution was mixed for an additional minute. The reaction was started with the addition of the substrate (D), after which the reaction solution was incubated for 5 min at 37° C. in a shaking bath. The reaction was stopped by the addition of 100 μl of cold hexane, the resulting mixture was centrifuged at 3000×g for 10 min and the supernatant transferred to the pre-conditioned phenylboronic acid cartridges in order to extract the product formed and the remaining substrate. Extracted samples were directly injected onto the HPLC under either chiral or achiral conditions.
# [2] = target: T2, dopamine beta-hydroxylase immobilized onto IAM (DBH-IAM); assay: DBH immobilized onto IAM stationary phase (DBH-IAM), batch assay; assay type: biochemical, bovine
# Procedure: as §1
# The packing material was washed three times with sodium acetate buffer (0.1M, pH 5.5). The washing was carried out by adding 1 ml of buffer to the packing material, the suspension was vortexed for 1 min, centrifuged at 3000×g for 10 min and the supernatant decanted. The enzyme solution (8-10 μg in 1 ml sodium acetate buffer) was added to the packing material, the mixture was vortexed for 15 min and then placed in a shaking bath for 2 h at ambient temperature. At the end of 2 h, the suspension was centrifuged, the supernatant decanted and the packing material washed three additional times with buffer. The amount of enzyme immobilized on the packing material was determined by measuring the amount of residual enzyme in the supernatant using the BioRad Protein Assay. The difference in the absorbance reading before immobilization and the total of absorbances after immobilization determined the amount of enzyme bound on the packing material.
# [3] = target: T3, DBH-Glut-P IMER (immobilized dopamine beta-hydroxylase); assay: On-line DBH-Glut-P immobilized enzyme reactor (DBH-Glut-P IMER) HPLC system; assay type: biochemical, bovine
# Text: DBH immobilized on the IAM or Glut-P stationary phase was packed into a 1 cm×10 mm guard (Regis Technologies). The guard was placed in a holder and the resulting column connected to a chromatographic system. THE DBH-IAM-IMER and the DBH-Glut-P-IMER was washed with sodium acetate buffer [0.1M, pH 5.5] and sodium acetate buffer [0.1M, pH 6.0], respectively. The eluent from both IMERs was collected in order to determine if any of the DBH was being washed off the columns. The Biorad assay was utilized to measure the amount of non-immobilized enzyme. When the columns were not in use they were washed with sodium acetate buffer at the respective pHs and stored at 4° C.
# Pumps 2 and 3 on system 2 and 3 were stopped. 100 μl of a substrate/cofactor mixture is loaded into the injector (i) and the valve is switched to the inject position at the same time the witching valve (SV) is switched such that substrate/product are eluted from the DBH-IMERs and concentrated onto the PBA column of system 2.The second pump was started and mobile phase A was pumped through the PBA column at a flow rate of 0.1 ml/min for 30 sec in order to elute, ascorbic acid and any other by-products produced from the reaction. The pump was then switched to mobile phase B with a flow rate of 0.1 ml/min for 2 min and simultaneously SV1 was switched such that unreacted substrate and product formed were concentrated on the analytical columns of System 3. When the specific contact time elapses the SV2 is switched back to the original position and the pump 3 is started.
# The enzymatic activity on the DBH-Glut-P was determined by quantification of the amount of product formed with a given substrate. The temperature of the IMER unless otherwise stated was kept at 37° C. with a column heater. Stock solutions of tyramine were prepared in water. […] The kinetic parameters were determined using standard Michaelis-Menten approach. […] The rates of reaction (Vmax) were calculated using […]mol/mg/min. Results are expressed as mean±standard error of the mean (SEM). […]
# [4] = substrate: NCCc1ccc(O)c(O)c1; assay: purified protein, by the assay type; details: other: DBH-IAM; pH 5.5; 37.0 °C
# [5] = substrate: NCCc1ccc(O)cc1; assay: DBH immobilized onto IAM stationary phase (DBH-IAM), batch assay; assay type: biochemical, bovine; details: other: DBH-IAM; pH 5.5; 37.0 °C
# [6] = read-out: % Control Activity DBH
# [7] = read-out: % Control Activity DBH-IAM
molecule,measurement,setting,value
"CCCCc1ccc(C(=O)O)nc1 [Fusaric acid, fusaric acid]",IC50,[1],7.5 nM
same,inhibition of DBH mediated formation of norepinephrine from dopamine,"[1]; non-immobilized enzyme, concentrations as low as 10^−6M",approximately 50%
same,remaining activity at 0.0016 µM,[1]; [6],99%
same,remaining activity at 0.0032 µM,[1]; [6],84%
same,remaining activity at 0.0063 µM,[1]; [6],40%
same,remaining activity at 0.0125 µM,[1]; [6],21%
same,remaining activity at 0.025 µM,[1]; [6],19%
same,remaining activity at 0.05 µM,[1]; [6],17%
same,remaining activity at 0.1 µM,[1]; [6],0%
same,remaining activity at 0.2 µM,[1]; [6],0%
same,inhibition of DBH mediated formation of norepinephrine from dopamine,"[2]; immobilized enzyme (DBH-IAM), concentrations as low as 10^−6M",approximately 50%
same,remaining activity at 0.0016 µM,[2]; [7],91%
same,remaining activity at 0.0032 µM,[2]; [7],73%
same,remaining activity at 0.0063 µM,[2]; [7],56%
same,remaining activity at 0.0125 µM,[2]; [7],51%
same,remaining activity at 0.025 µM,[2]; [7],46%
same,remaining activity at 0.05 µM,[2]; [7],20%
same,remaining activity at 0.1 µM,[2]; [7],0%
same,remaining activity at 0.2 µM,[2]; [7],0%
same,IC50,[3],5.6 nM
"dopamine beta-hydroxylase immobilized onto IAM (DBH-IAM) (Bos taurus) (protein, purchased) MQVPSPSVREAASMYGTAVAVFLVILVAALQGSAPAESPFPFHIPLDPEGTLELSWNISYAQETIYFQLLVRELKAGVLFGMSDRGELENADLVVLWTDRDGAYFGDAWSDQKGQVHLDSQQDYQLLRAQRTPEGLYLLFKRPFGTCDPNDYLIEDGTVHLVYGFLEEPLRSLESINTSGLHTGLQRVQLLKPSIPKPALPADTRTMEIRAPDVLIPGQQTTYWCYVTELPDGFPRHHIVMYEPIVTEGNEALVHHMEVFQCAAEFETIPHFSGPCDSKMKPQRLNFCRHVLAAWALGAKAFYYPEEAGLAFGGPGSSRFLRLEVHYHNPLVITGRRDSSGIRLYYTAALRRFDAGIMELGLAYTPVMAIPPQETAFVLTGYCTDKCTQLALPASGIHIFASQLHTHLTGRKVVTVLARDGRETEIVNRDNHYSPHFQEIRMLKKVVSVQPGDVLITSCTYNTEDRRLATVGGFGILEEMCVNYVHYYPQTQLELCKSAVDPGFLHKYFRLVNRFNSEEVCTCPQASVPEQFASVPWNSFNREVLKALYGFAPISMHCNRSSAVRFQGEWNRQPLPEIVSRLEEPTPHCPASQAQSPAGPTVLNISGGKG",Km,[4],2530 µM
same,Vmax,[4],0.160 µmol/mg/min
same,Km,[5],1640 µM
same,Vmax,[5],0.101 µmol/mg/min
